SMILES strings stand for the structures.

In data set [1] the test system is knockout of P. falciparum PfSR25. Details: method as in PMID 28842684. As to conditions: knockout versus wild type; cited from earlier work.
Data set [2] is classed as physicochemical. As to conditions: in our experimental conditions. The text has this:
The methods used to prepare the 1-aryl-1H-1,2,3-triazoles and 2-aryl-2H-1,2,3-triazoles (54 examples) involved classical chemical transformations, and all evaluated compounds were from the group’s molecular bank and were present in other published works. […] This information can be important for future studies.

Another data set concerns P. falciparum W2. As to conditions: cited from earlier work.
Another data set deals with P. falciparum D10. As to conditions: cited from earlier work.
The next data set deals with P. falciparum Dd2. As to conditions: cited from earlier work.
The next data set relates to P. falciparum 3D7. To be noted: cited from earlier work.

In the case of `Clc1ccc2c(N3CCN(CCCN4CCN(c5ccnc6cc(Cl)ccc56)CC4)CC3)ccnc2c1` [piperaquine], in data set [1], the “susceptibility of PfSR25 knockout parasite to the drug” value is reported as “more susceptible”.

`COc1ccc(-n2cc(/C=N/Nc3ccc(Br)cc3)nn2)cc1` [Compound 52, (E)-4-((2-(4-bromophenyl)hydrazono)methyl)-1-(4-methoxyphenyl)-1H-1,2,3-triazole] had a melting point of 230 to 231 °C. In addition, the solubilization entry in data set [2] is reported as “weren’t able to be solubilized”.

As to `COc1cc([N+](=O)[O-])ccc1-n1cc(COC2=C(CC=C(C)C)C(=O)C=C(C)C2=O)nn1` [V], the IC50 with P. falciparum W2 was 4.1 µM.

`CN(C)C(Cn1cc(-c2ccccc2)nn1)NCc1ccccc1Cl` (stereo not shown) [II]: the results for the IC50 in the data set with P. falciparum D10 and in the data set on P. falciparum Dd2 were 11.3 µM and 13 µM, respectively.

`COc1ccc(-n2cc(/C=N/Nc3ccc(F)cc3)nn2)cc1` [Compound 53, (E)-4-((2-(4-fluorophenyl)hydrazono)methyl)-1-(4-methoxyphenyl)-1H-1,2,3-triazole] gave a melting point of 195 to 197 °C. Moreover, the solubilization entry in data set [2] is on record as “weren’t able to be solubilized”.

As for `O=C(Cn1cc(CNc2ccnc3cc(Cl)ccc23)nn1)N1CCCCC1` [IV], the results for the half-inhibitory concentration (IC50) in the data set on P. falciparum D10 and with P. falciparum Dd2 were 0.0136 µM and 0.0434 µM, respectively.

For `O=[N+]([O-])c1ccc(-n2cc(COc3ccc4cc(Br)ccc4c3)nn2)cc1` [I], the IC50 with P. falciparum 3D7 was 14.7 µM; in the data set with P. falciparum Dd2 it was 13.6 µM.

`CCOC(=O)C1CN(Cc2c[nH]nn2)c2cc(Cl)c(F)cc2C1=O` (stereo not shown) [III]: the IC50 with P. falciparum 3D7 was 1.33 µM.

What is called melting point is the temperature of the solid-liquid transition. By IC50 is commonly meant the concentration needed to halve the response being measured.

These data come from article PMC7465636 (Biomolecules, 2020).
